# Measured values from patent US20230346969A1, “INTERMEDIATE FOR PREPARING ANTIBODY-DRUG CONJUGATE (ADC), PREPARATION METHOD THEREFOR, AND USE THEREOF” (priority 2020, published 2023).
# Where a SMILES comes first, the peptide text is derived from it. [ ]: non-standard residue; d: D form. The star is where a group is joined. Dolaproine = CO[C@@H]([C@@H]1CCCN1)[C@@H](C)C(=O)O; Dil = CC[C@H](C)[C@H](NC)[C@@H](CC(=O)O)OC; X1 = C[C@@H](N*)[C@@H](O)c1ccccc1; NMeV = CN[C@H](C(=O)O)C(C)C
# Assays:
# Test in all cases: Cell viability assay (CCK-8)
# Type in all cases: cell-based
# MDA-MB-468 = details: free payloads; CCK-8, 96 hours; cell printed 'MOA-413-468', Mamary; read-out: IC50 (95% Cl)
# Description: (§1) Cell viability was determined using Cell Counting Kit 8 (CCK-8). Cells were seeded into 96-well plates at 3000-10000 cells/well. After incubation overnight, drugs were added at different concentrations. Plates were incubated in a 5% CO2, 37° C. humidified chamber for 96 hours. CCK8 reagent was added thereto and the plates were placed back to the incubator until the absorbance at 450 nm of untreated control cells was greater than 1.0. Growth inhibition was measured as the percent growth relative to untreated cells. Dose response curve was generated from the mean values of two or three tests, and IC50 values were calculated using Prism GraphPad software.
# (§2) The anti-tumor efficacy of different payloads on different tumor cell lines was detected by CCK-8, and the results are shown in FIG. 5.
# CFPAC-1 = details: free payloads; CCK-8, 96 hours; cell CFPAC-1, Pancreas; read-out: IC50 (95% Cl)
# Description: as §1, §2
# SK-MES-1 = details: free payloads; CCK-8, 96 hours; cell 'SK-M55-1' [sic], Lung; read-out: IC50 (95% Cl)
# Description: as §1, §2
# HT29 = details: free payloads; CCK-8, 96 hours; cell 'H123' [sic], Colon; read-out: IC50 (95% Cl)
# Description: as §1, §2
# COLO205 = details: free payloads; CCK-8, 96 hours; cell 'CCAO205' [sic], Colen; read-out: IC50 (95% Cl)
# Description: as §1, §2
# Capan-1 = details: free payloads; CCK-8, 96 hours; cell 'Cepes-3' [sic], Pancreas; read-out: IC50 (95% Cl)
# Description: as §1, §2
# SCLC-21H = details: free payloads; CCK-8, 96 hours; cell 'ECLC 214' [sic], Small cell lung; read-out: IC50 (95% Cl)
# Description: as §1, §2
# HCC1806 = details: free payloads; CCK-8, 96 hours; 'HCCHOI' [sic], Mamary; read-out: IC50 (95% Cl)
# Description: as §1, §2
# NCI-H1688 = details: free payloads; CCK-8, 96 hours; cell 'NCl-H1828' [sic], Lung; read-out: IC50 (95% Cl)
# Description: as §1, §2
# SKBR3 = details: free payloads; CCK-8, 96 hours; cell 'SK8RS' [sic], Mamary; read-out: IC50 (95% Cl)
# Description: as §1, §2
# MDA-MB-231 = details: free payloads; CCK-8, 96 hours; 'MCP-83-21' [sic], Mamary; read-out: IC50 (95% Cl)
# Description: as §1, §2
# BXPC-3 = details: free payloads; CCK-8, 96 hours; cell 'BKFC-Y' [sic], Pancreas; read-out: IC50 (95% Cl)
# Description: as §1, §2
compound,measurement,setting,value
CC[C@H](C)[C@@H]([C@@H](CC(=O)N1CCC[C@H]1[C@H](OC)[C@@H](C)C(=O)N[C@H](C)[C@@H](O)c1ccccc1)OC)N(C)C(=O)[C@@H](NC(=O)[C@@H](NC)C(C)C)C(C)C [MMAE] (H-[NMeV]V[Dil][Dolaproine]-X1),IC50,MDA-MB-468,~0.141 nM
same,IC50,CFPAC-1,> 300 nM
same,IC50,SK-MES-1,0.225 nM
same,IC50,HT29,~3.05 nM
same,IC50,COLO205,0.155 nM
same,IC50,Capan-1,0.366 nM
same,IC50,SCLC-21H,0.0131 nM
same,IC50,HCC1806,0.0177 nM
same,IC50,NCI-H1688,1.74 nM
same,IC50,SKBR3,0.0327 nM
same,IC50,MDA-MB-231,> 300 nM
same,IC50,BXPC-3,0.263 nM
CCc1c2c(nc3ccc(O)cc13)-c1cc3c(c(=O)n1C2)COC(=O)[C@]3(O)CC [SN38],IC50,MDA-MB-468,3.72 nM
same,IC50,CFPAC-1,~0.281 nM
same,IC50,SK-MES-1,5.5 nM
same,IC50,HT29,> 305 nM
same,IC50,COLO205,33.4 nM
same,IC50,Capan-1,5.61 nM
same,IC50,SCLC-21H,2.14 nM
same,IC50,HCC1806,0.412 nM
same,IC50,NCI-H1688,~4.9 nM
same,IC50,SKBR3,2.14 nM
same,IC50,MDA-MB-231,103 nM
same,IC50,BXPC-3,20.8 nM
